Experimental data taken from patent US7476729B2, “Dbait and uses thereof” (Institut Curie, priority 2003, dated 2009).

Assays:
[1] = tested on: GMA32 cells; assay: FACS analysis of sub-G1 cells (cell death) in GMA32 cells; assay type: cell-based, Chinese hamster; conditions: GMA32, 4.5 μg Dbait with lipofectamine, no irradiation or mitotic inhibitor
Method: The GMA32 Chinese hamster fibroblast cells permissive of DNA breaks were maintained in MEM medium (Gibco) supplemented with 1 mM sodium pyruvate, 2 mM glutamine, 1×MEM non essential amino acids, 1× penicillin/streptomycin and 10% horse serum. Typically, 2×10^5 to 4×10^5 cells were seeded in medium without antibiotics, in 5 cm diameter Petri dishes 24 hours before the transfection of different Dbait molecules (4.5 μg) with lipofectamine 2000 (LifeTechnologies) as transfection agent (in a 1:3 ratio), according to the manufacturer's instructions. At the end of the transfection the cells were either irradiated (4 Gy) or treated with mitotic inhibitors: nocodazole (200 nM), navelbine (100 nM) or taxol (200 nM).
About 16 hour later the drug was removed and the cells were allowed to recover. Cell irradiation was performed with γ-rays from a ^137Cs source. After a 24 hours recovery, the cells were collected and used either for FACS, western blot analyses or to determine the clonogenicity (survival) and the effect of each treatment.
The M1 phase represents the percentage of cells in sub-G1 stage indicative of cell death.
The experiments were performed with a FACS calibur flow cytometer (Becton Dickinson). Cells were collected, suspended in 1 ml of cold GM buffer (6.5 mM glucose, 137 mM NaCl, 5.4 mM KCl, 2 mM Na2HPO4, 1 mM KHPO4, 0.5 mM EDTA), and stored at 4° C. for at least 2 hours after addition of 3 ml of cold 100% ethanol.
At that stage, cells were eventually washed with 1×PBS, then stained for 30 minutes at room temperature in PI solution (50 μg/ml propidium iodide, 25 μg/ml RNase A in 1×PBS buffer). 10,000 events were analyzed with Cellquest software, and cell aggregates were gated out. The percentage of cells with a sub-G1 content of DNA was scored.

[2] = tested on: radiation-enhanced illegitimate integration of a plasmid in Hela cells; assay: Inhibition of radiation-enhanced illegitimate integration of exogenous DNA; assay type: cell-based, human; conditions: for radiation-enhanced illegitimate integration of plasmid (puromycin resistance): 2 μg Dbait, fractionated 4×0.5 Gy irradiation
Method: Exponentially growing cells in six-well plates were harvested and incubated with […] of complete DMEM containing a mixture of Dbait molecules and Superfect reagent (Qiagen, Courtaboeuf, France) in a ratio of 10 μl Superfect per μg DNA. After 5 h at 37° C. under standard conditions, the cells were washed with PBS and complete DMEM was added. Where indicated, cells were exposed to irradiation either in one session (10 Gy) 5 h after the beginning of transfection or in four sessions of 0.5 Gy administered with a ^137Cs unit (1 Gy/min) 3, 4, 5 and 6 h after the beginning of transfection and allowed to grow for two weeks. When plasmid integration was measured, 2 μg of plasmid was added to Dbait transfection and puromycin (1.7 μg/ml) was added to the growth medium 48 h after transfection. Plasmid transfection efficiency was estimated by analyzing 10,000 cells for GFP expression on a FACScan flow cytometer (FACSalibur, Beckton-Dickinson, USA).
Ionizing radiation is known to improve illegitimate integration of exogenous DNA, a process termed radiation-enhanced integration. Hela cell culture was used for this assay. Cells were transfected during 8 hours by 2 μg of a linear plasmid carrying the gene coding for neomycin resistance, and three different ratio of DNA/superfect (1:2, 1:5, 1:10). During transfection time, the cells were exposed to different irradiation protocols: no irradiation, one single irradiation of 1 Gy and 2 Gy, as well as a 2 Gy irradiation delivered by fractionated doses of 0.5 Gy every 2 hours (4×0.5 Gy). The integration of the plasmid was monitored by selection of Neo^R cells growing in a medium containing 0.6 mg/ml of G418. […] When 2 μg of Dbait32H (SEQ ID NO: 1) molecules were added to the transfection mix, the radiation-enhanced integration was abolished (FIG. 2.3).
Wortmann (Wort) and NU7026 (NU) which are known inhibitors of PI3K (including DNA-PK) were used as control.

[3] = tested on: p53 serine 15 phosphorylation in GMA32 cells; assay: Western blot of p53 serine 15 phosphorylation in GMA32 cells; assay type: cell-based, Chinese hamster; conditions: GMA32, Dbait with lipofectamine, no irradiation or mitotic inhibitor
Method: Further experiment was carried out in order to look for evidence of DNA damage signaling. The protein p53 is a well known major protein in mediating DNA damage signaling and in coordinating appropriate responses (DNA repair, apoptosis, etc.) by changing its phosphorylation status. In particular, the phosphorylation of serine 15 residue is involved in the interaction with MDM2 protein which acts as a feed back control Thus, the phosphorylation status of the serine 15 of p53 was assessed by Western blot.
For Western blot analysis, cells were lysed in Laemmli buffer. Equal amounts of lysates were resolved in 12% polyacrylamide gels. Proteins were transferred to nitrocellulose membranes, which were blocked with 5% nonfat milk (1 hour) before overnight incubation with anti-p53Ser15 antibody (9284, Cell Signaling) diluted 500 folds in TBST buffer (10 mM Tris-HCl pH7.5, 150 mM NaCl, 0.1% Tween 20) containing 5% nonfat milk. Blots were then incubated with horseradish peroxidase-conjugated goat anti-rabbit IgG secondary antibodies (P0448, Dako) diluted 1/5000 in TBST. Protein-antibody complexes were detected by enhanced chemiluminescence (RPN2106 ECL, Amersham).

[4] = biological target: T1, Ku complex (Homo sapiens, UniProt P12956+P13010); assay: Band-shift assay with Hep2 nuclear protein extracts; assay type: binding; conditions: for retarded bands in band-shift assay: 10 nM 32P radio-labelled Dbait, 0-320 ng/μL Hep2 nuclear proteins, 30° C., 10 minutes; for binding of Ku: Hep2 nuclear extract, band-shift
T1 construct: in the presence of nuclear protein extracts from Hep2 cells according to standard protocol; endogenous in cells; host or cells: Hep2 cells (nuclear protein extract)
T1 sequence (P12956 whole entry): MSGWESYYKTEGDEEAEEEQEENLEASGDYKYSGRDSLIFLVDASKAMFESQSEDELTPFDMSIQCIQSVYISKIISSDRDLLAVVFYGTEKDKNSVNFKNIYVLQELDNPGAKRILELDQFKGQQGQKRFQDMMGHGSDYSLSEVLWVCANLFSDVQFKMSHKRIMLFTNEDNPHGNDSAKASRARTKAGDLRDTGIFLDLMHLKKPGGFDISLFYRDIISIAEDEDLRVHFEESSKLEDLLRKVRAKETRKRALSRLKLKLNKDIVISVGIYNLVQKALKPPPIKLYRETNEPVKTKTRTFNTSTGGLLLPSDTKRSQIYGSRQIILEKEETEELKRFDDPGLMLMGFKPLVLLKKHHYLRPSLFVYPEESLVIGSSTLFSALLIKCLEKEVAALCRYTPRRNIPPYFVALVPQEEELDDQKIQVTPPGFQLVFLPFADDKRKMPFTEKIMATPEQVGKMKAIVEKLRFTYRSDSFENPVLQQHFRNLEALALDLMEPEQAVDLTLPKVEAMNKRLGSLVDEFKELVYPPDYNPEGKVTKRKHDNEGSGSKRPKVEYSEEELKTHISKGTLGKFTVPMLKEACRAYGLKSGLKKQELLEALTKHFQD
T1 sequence (P13010 whole entry): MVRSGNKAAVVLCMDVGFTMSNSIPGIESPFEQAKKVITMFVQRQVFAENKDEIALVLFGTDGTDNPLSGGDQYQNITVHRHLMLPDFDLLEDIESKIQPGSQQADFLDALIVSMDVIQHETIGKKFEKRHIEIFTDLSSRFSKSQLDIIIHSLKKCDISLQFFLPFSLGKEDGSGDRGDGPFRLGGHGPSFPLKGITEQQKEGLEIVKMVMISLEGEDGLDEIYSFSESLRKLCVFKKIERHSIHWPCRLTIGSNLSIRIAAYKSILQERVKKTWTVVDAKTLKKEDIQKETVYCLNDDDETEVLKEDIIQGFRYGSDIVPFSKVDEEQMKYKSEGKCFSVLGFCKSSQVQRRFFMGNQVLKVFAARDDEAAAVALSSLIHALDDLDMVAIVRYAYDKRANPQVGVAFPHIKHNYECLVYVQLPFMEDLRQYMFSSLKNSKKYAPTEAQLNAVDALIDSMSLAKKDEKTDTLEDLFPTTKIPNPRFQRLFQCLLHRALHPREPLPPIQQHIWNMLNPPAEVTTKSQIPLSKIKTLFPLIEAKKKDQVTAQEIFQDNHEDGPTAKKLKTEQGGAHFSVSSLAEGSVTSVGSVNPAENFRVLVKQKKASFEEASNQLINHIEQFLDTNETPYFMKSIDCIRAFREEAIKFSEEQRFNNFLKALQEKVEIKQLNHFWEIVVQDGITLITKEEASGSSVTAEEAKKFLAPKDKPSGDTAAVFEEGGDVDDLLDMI
Method: As the first step to dissect the mechanism of action of Dbait molecules, a series of band-shift assays were carried out with different ^32P radio-labelled Dbait molecules in the presence of nuclear protein extracts from Hep2 cells according to standard protocol. Typically, 10 nM ^32P radio-labelled Dbait molecules were incubated in the presence of various concentrations of nuclear proteins (0, 10, 20, 40, 80, 160, and 320 ng/μL) at 30° C. for 10 minutes in TBE buffer. Then the samples were loaded on a 5% acrylamide native gel. The electrophoresis was run at 95V for 2 hours at 4° C. The gel was dried and scanned by phosphorimager (Molecular Dynamics).
For 32-bp Dbait molecules, the intensity of the retarded band 1 increases and then decreases as the concentration of protein increases, while the intensity of the retarded band 2 increases as a function of the concentration of nuclear protein extracts.
It is likely that band 1 has one Ku70/80 complex bound to the 16 to 32-bp Dbait, whereas the band 2 has two Ku70/80 complexes bound to the 32-bp Dbait molecules. Control experiments performed with purified Ku proteins confirmed this interpretation.

| Substance | cell death (cells in sub-G1 stage) [1] | radiation-enhanced illegitimate integration of plasmid (puromycin resistance) [2] | radiation-enhanced integration of linear plasmid (neomycin resistance) ([2]; Hela, 2 μg Dbait added to transfection mix, 4×0.5 Gy) | phosphorylation of p53 serine 15 [3] | retarded bands in band-shift assay [4] | binding of Ku [4] |
| --- | --- | --- | --- | --- | --- | --- |
| Dbait32H: hairpin double strand DNA with a stem of 32-bp, hexaethyleneglycol linker, phosphorothioate at the free blunt end (DNA ACGCACGGGTGTTGGGTCGTTTGTTCGGATCT; DNA, backbone not given here; hairpin, hexaethyleneglycol loop, 3-bp phosphorothioate at free blunt end) | Significant cell death | capable of inhibiting | abolished | highly phosphorylated | two retarded band |  |
| Dbait32ss: 32-nt single strand DNA (SEQ ID NO: 1) (DNA ACGCACGGGTGTTGGGTCGTTTGTTCGGATCT; DNA, backbone not given here) | moderate | not effective |  | Neither the shortest Dbait8H (SEQ ID NO: 4) nor single strand Dbaut32ss (SEQ ID NO: 1) molecules were able to induced significant phosphorylation |  |  |
| Dbait8H: hairpin double strand DNA with a stem of 8-bp (DNA ACGCACGG; DNA, backbone not given here; hairpin, hexaethyleneglycol loop, 3-bp phosphorothioate at free blunt end) | failed to trigger cell death | not effective |  | Neither the shortest Dbait8H (SEQ ID NO: 4) nor single strand Dbaut32ss (SEQ ID NO: 1) molecules were able to induced significant phosphorylation |  | dID NO:t bind Ku |
| Dbait16H: hairpin double strand DNA with a stem of 16-bp (DNA ACGCACGGGTGTTGGG; DNA, backbone not given here; hairpin DNA with hexaethyleneglycol loop, 3-bp phosphorothioate at free blunt end) | intermediate | not effective |  | moderate phosphorylation | One retarded band | bound only one Ku dimer |
